Measurements as given in PubChem BioAssay (NCI).
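Test compounds were applied to cells in 96-well plates for 48 hours at 5 doses. TGI is the concentration that stops growth completely.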

Columns and labels:
Test in all cases: DTP human tumour cell line panel, 48 h
A498 renal = system: A498 renal
A549 NSCLC = system: A549 NSCLC
ACHN renal = system: ACHN renal
CAKI-1 renal = system: CAKI-1 renal
CCRF-CEM leukemia = system: CCRF-CEM leukemia
COLO 205 colon = system: COLO 205 colon
DLD-1 colon = system: DLD-1 colon
DMS 114 small cell lung = system: DMS 114 small cell lung
DMS 273 small cell lung = system: DMS 273 small cell lung
EKVX NSCLC = system: EKVX NSCLC
HCC-2998 colon = system: HCC-2998 colon
HCT-116 colon = system: HCT-116 colon
HCT-15 colon = system: HCT-15 colon
HL-60(TB) leukemia = system: HL-60(TB) leukemia
HOP-18 NSCLC = system: HOP-18 NSCLC
HOP-62 NSCLC = system: HOP-62 NSCLC
HOP-92 NSCLC = system: HOP-92 NSCLC
HT29 colon = system: HT29 colon
IGROV1 ovarian = system: IGROV1 ovarian
K-562 leukemia = system: K-562 leukemia
KM12 colon = system: KM12 colon
KM20L2 colon = system: KM20L2 colon
LOX IMVI melanoma = system: LOX IMVI melanoma
LXFL 529 NSCLC = system: LXFL 529 NSCLC
M14 melanoma = system: M14 melanoma
M19-MEL melanoma = system: M19-MEL melanoma
MALME-3M melanoma = system: MALME-3M melanoma
MOLT-4 leukemia = system: MOLT-4 leukemia
NCI-H226 lung = system: NCI-H226 lung
NCI-H23 lung = system: NCI-H23 lung
NCI-H460 lung = system: NCI-H460 lung
NCI-H522 lung = system: NCI-H522 lung
OVCAR-3 ovarian = system: OVCAR-3 ovarian
OVCAR-4 ovarian = system: OVCAR-4 ovarian
OVCAR-5 ovarian = system: OVCAR-5 ovarian
OVCAR-8 ovarian = system: OVCAR-8 ovarian
RPMI-8226 leukemia = system: RPMI-8226 leukemia
RXF 393 renal = system: RXF 393 renal
RXF-631 renal = system: RXF-631 renal
SF-268 CNS = system: SF-268 CNS
SF-295 CNS = system: SF-295 CNS
SF-539 CNS = system: SF-539 CNS
SK-MEL-2 melanoma = system: SK-MEL-2 melanoma
SK-MEL-28 melanoma = system: SK-MEL-28 melanoma
SK-MEL-5 melanoma = system: SK-MEL-5 melanoma
SK-OV-3 ovarian = system: SK-OV-3 ovarian
SN12C renal = system: SN12C renal
SNB-19 CNS = system: SNB-19 CNS
SNB-75 CNS = system: SNB-75 CNS
SNB-78 CNS = system: SNB-78 CNS
SR leukemia = system: SR leukemia
SW-620 colon = system: SW-620 colon
TK-10 renal = system: TK-10 renal
U251 CNS = system: U251 CNS
UACC-257 melanoma = system: UACC-257 melanoma
UACC-62 melanoma = system: UACC-62 melanoma
UO-31 renal = system: UO-31 renal
XF 498 CNS = system: XF 498 CNS
786-0 renal = system: 786-0 renal
BT-549 breast = system: BT-549 breast
DU-145 prostate = system: DU-145 prostate
HS 578T breast = system: HS 578T breast
MCF7 breast = system: MCF7 breast
MDA-MB-231 breast = system: MDA-MB-231 breast
MDA-MB-435 = system: MDA-MB-435
MDA-N = system: MDA-N
NCI/ADR-RES ovarian = system: NCI/ADR-RES ovarian
PC-3 prostate = system: PC-3 prostate

SMILES: O=C(CC1Sc2ccccc2NC1=O)Nc1ccc(Cl)cc1 (stereo unspecified)
- TGI (A498 renal): > 100 µM
- TGI (A549 NSCLC): > 100 µM
- TGI (ACHN renal): > 100 µM
- TGI (CAKI-1 renal): > 100 µM
- TGI (CCRF-CEM leukemia): > 100 µM
- TGI (COLO 205 colon): > 100 µM
- TGI (DLD-1 colon): > 100 µM
- TGI (DMS 114 small cell lung): > 100 µM
- TGI (DMS 273 small cell lung): > 100 µM
- TGI (EKVX NSCLC): > 100 µM
- TGI (HCC-2998 colon): > 100 µM
- TGI (HCT-116 colon): > 100 µM
- TGI (HCT-15 colon): > 100 µM
- TGI (HL-60(TB) leukemia): > 100 µM
- TGI (HOP-18 NSCLC): > 100 µM
- TGI (HOP-62 NSCLC): > 100 µM
- TGI (HOP-92 NSCLC): 67.2 µM
- TGI (HT29 colon): > 100 µM
- TGI (IGROV1 ovarian): > 100 µM
- TGI (K-562 leukemia): > 100 µM
- TGI (KM12 colon): > 100 µM
- TGI (KM20L2 colon): > 100 µM
- TGI (LOX IMVI melanoma): > 100 µM
- TGI (LXFL 529 NSCLC): > 100 µM
- TGI (M14 melanoma): > 100 µM
- TGI (M19-MEL melanoma): > 100 µM
- TGI (MALME-3M melanoma): > 100 µM
- TGI (MOLT-4 leukemia): > 100 µM
- TGI (NCI-H226 lung): > 100 µM
- TGI (NCI-H23 lung): > 100 µM
- TGI (NCI-H460 lung): > 100 µM
- TGI (NCI-H522 lung): > 100 µM
- TGI (OVCAR-3 ovarian): > 100 µM
- TGI (OVCAR-4 ovarian): 47.3 µM
- TGI (OVCAR-5 ovarian): > 100 µM
- TGI (OVCAR-8 ovarian): > 100 µM
- TGI (RPMI-8226 leukemia): > 100 µM
- TGI (RXF 393 renal): 67.2 µM
- TGI (RXF-631 renal): > 100 µM
- TGI (SF-268 CNS): > 100 µM
- TGI (SF-295 CNS): > 100 µM
- TGI (SF-539 CNS): > 100 µM
- TGI (SK-MEL-2 melanoma): > 100 µM
- TGI (SK-MEL-28 melanoma): > 100 µM
- TGI (SK-MEL-5 melanoma): > 100 µM
- TGI (SK-OV-3 ovarian): > 100 µM
- TGI (SN12C renal): > 100 µM
- TGI (SNB-19 CNS): > 100 µM
- TGI (SNB-75 CNS): > 100 µM
- TGI (SNB-78 CNS): > 100 µM
- TGI (SR leukemia): > 100 µM
- TGI (SW-620 colon): > 100 µM
- TGI (TK-10 renal): > 100 µM
- TGI (U251 CNS): > 100 µM
- TGI (UACC-257 melanoma): > 100 µM
- TGI (UACC-62 melanoma): > 100 µM
- TGI (UO-31 renal): > 100 µM
- TGI (XF 498 CNS): > 100 µM

SMILES: COc1ccc(CCc2cc(OC)c(OC)c(OC)c2)cc1
- TGI (786-0 renal): 69.1 µM
- TGI (A498 renal): 8.62 µM
- TGI (A549 NSCLC): 88.8 µM
- TGI (ACHN renal): 76.9 µM
- TGI (BT-549 breast): > 100 µM
- TGI (CAKI-1 renal): 20.4 µM
- TGI (CCRF-CEM leukemia): 12.4 µM
- TGI (COLO 205 colon): 0.189 µM
- TGI (DLD-1 colon): > 100 µM
- TGI (DMS 114 small cell lung): 0.323 µM
- TGI (DMS 273 small cell lung): 1.43 µM
- TGI (DU-145 prostate): 5.62 µM
- TGI (EKVX NSCLC): 70 µM
- TGI (HCC-2998 colon): 2.82 µM
- TGI (HCT-116 colon): 9.41 µM
- TGI (HCT-15 colon): 10.2 µM
- TGI (HL-60(TB) leukemia): 0.296 µM
- TGI (HOP-18 NSCLC): > 100 µM
- TGI (HOP-62 NSCLC): 14 µM
- TGI (HOP-92 NSCLC): 62.7 µM
- TGI (HS 578T breast): > 100 µM
- TGI (HT29 colon): 1.44 µM
- TGI (IGROV1 ovarian): > 100 µM
- TGI (K-562 leukemia): 13.7 µM
- TGI (KM12 colon): 5.77 µM
- TGI (KM20L2 colon): 0.049 µM
- TGI (LOX IMVI melanoma): 39.5 µM
- TGI (LXFL 529 NSCLC): 21 µM
- TGI (M14 melanoma): 16 µM
- TGI (M19-MEL melanoma): > 100 µM
- TGI (MALME-3M melanoma): 39.1 µM
- TGI (MCF7 breast): > 100 µM
- TGI (MDA-MB-231 breast): 15.7 µM
- TGI (MDA-MB-435): 0.0345 µM
- TGI (MDA-N): 0.021 µM
- TGI (MOLT-4 leukemia): 6.26 µM
- TGI (NCI-H226 lung): 7.46 µM
- TGI (NCI-H23 lung): 26.9 µM
- TGI (NCI-H460 lung): 9.82 µM
- TGI (NCI-H522 lung): 0.115 µM
- TGI (NCI/ADR-RES ovarian): > 100 µM
- TGI (OVCAR-3 ovarian): 0.523 µM
- TGI (OVCAR-4 ovarian): > 92.5 µM
- TGI (OVCAR-5 ovarian): > 100 µM
- TGI (OVCAR-8 ovarian): 32.2 µM
- TGI (PC-3 prostate): > 62.6 µM
- TGI (RPMI-8226 leukemia): 17.1 µM
- TGI (RXF 393 renal): 0.057 µM
- TGI (RXF-631 renal): 4.45 µM
- TGI (SF-268 CNS): 19.6 µM
- TGI (SF-295 CNS): 1.46 µM
- TGI (SF-539 CNS): 0.146 µM
- TGI (SK-MEL-2 melanoma): 24.2 µM
- TGI (SK-MEL-28 melanoma): > 61.3 µM
- TGI (SK-MEL-5 melanoma): 12 µM
- TGI (SK-OV-3 ovarian): > 32.2 µM
- TGI (SN12C renal): > 91.2 µM
- TGI (SNB-19 CNS): > 100 µM
- TGI (SNB-75 CNS): > 100 µM
- TGI (SNB-78 CNS): 0.0976 µM
- TGI (SR leukemia): 0.78 µM
- TGI (SW-620 colon): > 100 µM
- TGI (TK-10 renal): > 97.9 µM
- TGI (U251 CNS): 2.73 µM
- TGI (UACC-257 melanoma): 47.7 µM
- TGI (UACC-62 melanoma): > 100 µM
- TGI (UO-31 renal): 83.2 µM
- TGI (XF 498 CNS): 20.6 µM

SMILES: CC1CC[C@]2(C(=O)O)CCC3(C)C(=CCC4[C@@]5(C)CC[C@H](OS(=O)(=O)c6ccccc6)C(C)(C)C5CC[C@]43C)[C@@H]2[C@H]1C (stereo partly specified)
- TGI (786-0 renal): > 100 µM
- TGI (A498 renal): > 100 µM
- TGI (A549 NSCLC): > 100 µM
- TGI (ACHN renal): > 100 µM
- TGI (CAKI-1 renal): > 100 µM
- TGI (CCRF-CEM leukemia): > 100 µM
- TGI (COLO 205 colon): > 100 µM
- TGI (DLD-1 colon): > 100 µM
- TGI (DMS 114 small cell lung): > 100 µM
- TGI (DMS 273 small cell lung): > 100 µM
- TGI (EKVX NSCLC): > 100 µM
- TGI (HCC-2998 colon): > 100 µM
- TGI (HCT-116 colon): > 100 µM
- TGI (HOP-18 NSCLC): > 100 µM
- TGI (HOP-62 NSCLC): > 100 µM
- TGI (HOP-92 NSCLC): > 100 µM
- TGI (HT29 colon): > 100 µM
- TGI (IGROV1 ovarian): > 100 µM
- TGI (K-562 leukemia): > 100 µM
- TGI (KM12 colon): > 100 µM
- TGI (LOX IMVI melanoma): > 100 µM
- TGI (LXFL 529 NSCLC): > 100 µM
- TGI (M14 melanoma): > 100 µM
- TGI (M19-MEL melanoma): > 100 µM
- TGI (MALME-3M melanoma): > 100 µM
- TGI (MOLT-4 leukemia): > 100 µM
- TGI (NCI-H226 lung): > 100 µM
- TGI (NCI-H23 lung): > 100 µM
- TGI (NCI-H460 lung): > 100 µM
- TGI (NCI-H522 lung): > 100 µM
- TGI (OVCAR-3 ovarian): > 100 µM
- TGI (OVCAR-4 ovarian): > 100 µM
- TGI (OVCAR-5 ovarian): > 100 µM
- TGI (OVCAR-8 ovarian): > 100 µM
- TGI (RPMI-8226 leukemia): > 100 µM
- TGI (RXF-631 renal): > 100 µM
- TGI (SF-268 CNS): > 100 µM
- TGI (SF-295 CNS): > 100 µM
- TGI (SF-539 CNS): > 100 µM
- TGI (SK-MEL-2 melanoma): > 100 µM
- TGI (SK-MEL-28 melanoma): > 100 µM
- TGI (SK-MEL-5 melanoma): > 100 µM
- TGI (SK-OV-3 ovarian): > 100 µM
- TGI (SN12C renal): > 100 µM
- TGI (SNB-19 CNS): > 100 µM
- TGI (SNB-75 CNS): > 100 µM
- TGI (SNB-78 CNS): > 100 µM
- TGI (SR leukemia): > 100 µM
- TGI (SW-620 colon): > 100 µM
- TGI (TK-10 renal): > 100 µM
- TGI (U251 CNS): > 100 µM
- TGI (UACC-257 melanoma): > 100 µM
- TGI (UACC-62 melanoma): > 100 µM
- TGI (UO-31 renal): > 100 µM
- TGI (XF 498 CNS): > 100 µM
